Data as given in patent US6537744B1, “Use of biomarkers in saliva to evaluate the toxicity of agents and the function of tissues in both biomedical and environmental applications” (priority 1995, dated 2003).

What was measured:
[1] = test system: acetylcholinesterase in human saliva; test: Inhibition of acetylcholinesterase in human saliva (acetylthiocholine iodide/DTNB, 405 nm); type: biochemical; settings: for % Activity / % Inhibition / Absorb. at 408 nm for 65 min. / Absorb. at 408 nm for 180 min. / nmol/min per mg: 0.6 mL saliva, 30 min preincubation at room temperature
Experimental: The hydrolysis of acetylthiocholine iodide (an analog of acetylcholine iodides) by the saliva enzyme or enzymes is measured by generating the yellow 5-thio-2-nitrobenzoate with an absorbance maximum at 405 nm. The rate of change of absorbance is directly proportional to acetylcholinesterase activity. In this procedure, 0.1-1 mL of saliva (3.261 mg protein/mL) is incubated with 100 μL of acetylthiocholine iodide (0.018M) (lot #10H0653 Sigma) for 30-180 minute at 37° C. in 4.0 mL phosphate buffer (pH 7.8). After the incubation, a 0.2 mL of DTNB is added and the sample is read at 405 nm. The enzyme activity is calculated from glutathione standard curve (Table 9 and FIG. 9). Values for AChE activity in human saliva and enzyme kinetics are presented in Tables 10-14 and show in FIG. 10 through FIG. 14.
The AChE specific activity in saliva is about 4 nmol minute^−1 per mL of saliva. […] The percent of enzyme inhibition by organophosphate is calculated and presented in Tables 13-14 and showing in FIG. 15.

[2] = target: saliva enzymes (esterase activity); test: Inhibition of saliva enzymes (esterase activity) for detection of chemicals in water; type: biochemical, human
Experimental: The presence of chemicals in milk, water, urine and other biological fluids are detected using saliva enzymes. The detection limit for the chemicals depends on the chemical potency and the number of chemicals present in the sample. The data presented here using saliva enzymes indicates a remarkably low concentration of des N-isofenphos (DNIO) in water (3 ng/mL) is detectable using the saliva enzyme method. A 50% inhibition of esterase activity is produced at 3 ng/mL DNIO. In this procedure, the sample is passed through […] solid phase absorption column (C-18) to extract and concentrate the chemicals as described by Knaak et al. (1993). The retention of the chemicals on C-18 column depends on their lipid solubility. The non-polar compounds usually have the highest retention. Then, the chemical is eluted with 1 mL of alcohol. A 0.1 mL of the elute is tested for the inhibition of saliva enzymes as described in this application. Toxicants in solid environmental samples, fruit and vegetables can be extracted with water or proper solvent. Samples of the extract are tested for enzymes inhibition. The inhibition of saliva enzyme indicates the presence of toxicant(s) in the sample and further analysis is needed to identify the specific chemical(s).

[3] = 2 μg of DNIO in 4.0 mL, Test #2, 200 μL saliva, 37° C.

Question: For `CCOP(N)(=O)Oc1ccccc1C(=O)OC(C)C` (stereo not drawn) [DNIO, des N-Isofenphos-oxon], which “% Activity” value ([1]; 1.0 ng/mL, Test #2) is on record?
Answer: The value was 68%.

Question: What about the “% Inhibition” value ([1]; 1.0 ng/mL, Test #2) of the same molecule?
Answer: Its value is 32%.

Question: What about the “Absorb. at 408 nm for 65 min.” value ([1]; 1.0 ng/mL, Test #2) of the same molecule?
Answer: The value was “.17”.

Question: And the “Absorb. at 408 nm for 180 min.” value ([1]; 1.0 ng/mL, Test #2)?
Answer: Its value is “.21”.

Question: And the nmol/min per mg ([1]; 1.0 ng/mL, Test #2)?
Answer: Its nmol/min per mg is “.29 nmol/min per mg”.

Question: What about the “% Activity” value ([1]; 2.9 ng/mL, Test #2) of the same molecule?
Answer: The value was 45%.

Question: What about the “% Inhibition” value ([1]; 2.9 ng/mL, Test #2) of the same molecule?
Answer: Its value is 55%.

Question: What about the “Absorb. at 408 nm for 65 min.” value ([1]; 2.9 ng/mL, Test #2) of the same molecule?
Answer: Its value is “.16”.

Question: And the “Absorb. at 408 nm for 180 min.” value ([1]; 2.9 ng/mL, Test #2)?
Answer: The value was “.14”.

Question: What about the nmol/min per mg ([1]; 2.9 ng/mL, Test #2) of the same molecule?
Answer: Its nmol/min per mg is “.19 nmol/min per mg”.

Question: And the “% Activity” value ([1]; 8.6 ng/mL, Test #2)?
Answer: Its value is 26%.

Question: What about the “% Inhibition” value ([1]; 8.6 ng/mL, Test #2) of the same molecule?
Answer: The value was 74%.

Question: What about the “Absorb. at 408 nm for 65 min.” value ([1]; 8.6 ng/mL, Test #2) of the same molecule?
Answer: The value was “.11”.

Question: What about the “Absorb. at 408 nm for 180 min.” value ([1]; 8.6 ng/mL, Test #2) of the same molecule?
Answer: Its value is “.08”.

Question: What about the nmol/min per mg ([1]; 8.6 ng/mL, Test #2) of the same molecule?
Answer: The nmol/min per mg was “.11 nmol/min per mg”.

Question: What about the “% Activity” value ([1]; 26 ng/mL, Test #2) of the same molecule?
Answer: The value was 19%.

Question: And the “% Inhibition” value ([1]; 26 ng/mL, Test #2)?
Answer: The value was 81%.

Question: What about the “Absorb. at 408 nm for 65 min.” value ([1]; 26 ng/mL, Test #2) of the same molecule?
Answer: Its value is “.11”.

Question: What about the “Absorb. at 408 nm for 180 min.” value ([1]; 26 ng/mL, Test #2) of the same molecule?
Answer: Its value is “.06”.

Question: And the nmol/min per mg ([1]; 26 ng/mL, Test #2)?
Answer: The nmol/min per mg was “.08 nmol/min per mg”.

Question: What about the “% Activity” value ([1]; 52 ng/mL, Test #2) of the same molecule?
Answer: The value was 13%.

Question: And the “% Inhibition” value ([1]; 52 ng/mL, Test #2)?
Answer: Its value is 87%.

Question: And the “Absorb. at 408 nm for 65 min.” value ([1]; 52 ng/mL, Test #2)?
Answer: Its value is “.09”.

Question: What about the “Absorb. at 408 nm for 180 min.” value ([1]; 52 ng/mL, Test #2) of the same molecule?
Answer: Its value is “.04”.

Question: What about the nmol/min per mg ([1]; 52 ng/mL, Test #2) of the same molecule?
Answer: Its nmol/min per mg is “.05 nmol/min per mg”.

Question: What about the “% Activity” value ([1]; 78 ng/mL, Test #2) of the same molecule?
Answer: Its value is 13%.

Question: What about the “% Inhibition” value ([1]; 78 ng/mL, Test #2) of the same molecule?
Answer: Its value is 87%.

Question: And the “Absorb. at 408 nm for 65 min.” value ([1]; 78 ng/mL, Test #2)?
Answer: Its value is “.10”.

Question: What about the “Absorb. at 408 nm for 180 min.” value ([1]; 78 ng/mL, Test #2) of the same molecule?
Answer: The value was “.04”.

Question: And the nmol/min per mg ([1]; 78 ng/mL, Test #2)?
Answer: Its nmol/min per mg is “.05 nmol/min per mg”.

Question: What about the “% Activity” value ([1]; 156 ng/mL, Test #2) of the same molecule?
Answer: Its value is 13%.

Question: And the “% Inhibition” value ([1]; 156 ng/mL, Test #2)?
Answer: Its value is 87%.

Question: And the “Absorb. at 408 nm for 65 min.” value ([1]; 156 ng/mL, Test #2)?
Answer: Its value is “.10”.

Question: And the “Absorb. at 408 nm for 180 min.” value ([1]; 156 ng/mL, Test #2)?
Answer: The value was “.04”.

Question: And the nmol/min per mg ([1]; 156 ng/mL, Test #2)?
Answer: Its nmol/min per mg is “.05 nmol/min per mg”.

Question: What about the “% Activity” value ([1]; 313 ng/mL, Test #2) of the same molecule?
Answer: Its value is 10%.

Question: What about the “% Inhibition” value ([1]; 313 ng/mL, Test #2) of the same molecule?
Answer: Its value is 90%.

Question: What about the “Absorb. at 408 nm for 65 min.” value ([1]; 313 ng/mL, Test #2) of the same molecule?
Answer: The value was “.07”.

Question: What about the “Absorb. at 408 nm for 180 min.” value ([1]; 313 ng/mL, Test #2) of the same molecule?
Answer: The value was “.03”.

Question: What about the nmol/min per mg ([1]; 313 ng/mL, Test #2) of the same molecule?
Answer: The nmol/min per mg was “.04 nmol/min per mg”.

Question: What about the “% Activity” value ([1]; 625 ng/mL, Test #2) of the same molecule?
Answer: Its value is 10%.

Question: And the “% Inhibition” value ([1]; 625 ng/mL, Test #2)?
Answer: Its value is 90%.

Question: What about the “Absorb. at 408 nm for 65 min.” value ([1]; 625 ng/mL, Test #2) of the same molecule?
Answer: Its value is “.07”.

Question: And the “Absorb. at 408 nm for 180 min.” value ([1]; 625 ng/mL, Test #2)?
Answer: Its value is “.03”.

Question: What about the nmol/min per mg ([1]; 625 ng/mL, Test #2) of the same molecule?
Answer: The nmol/min per mg was “.04 nmol/min per mg”.

Question: What about the “Absorb. at 405 nm for 50 min.” value [1, 3] of the same molecule?
Answer: Its value is “.14”.

Question: And the “Absorb. at 405 nm for 110 min.” value [1, 3]?
Answer: The value was “.10”.

Question: What about the “Absorb. at 405 nm for 165 min.” value [1, 3] of the same molecule?
Answer: Its value is “.11”.

Question: And the Activity ([1]; 2 μg of DNIO in 4.0 mL, Test #2, 200 μL saliva, 37° C. (no inhibitor: 1.14))?
Answer: Its Activity is “.22 nmol/min”.

Question: What about the “% Activity” value ([1]; .04 ng/mL, Test #2) of the same molecule?
Answer: Its value is 94%.

Question: And the “% Inhibition” value ([1]; .04 ng/mL, Test #2)?
Answer: The value was 6%.

Question: And the “Absorb. at 408 nm for 65 min.” value ([1]; .04 ng/mL, Test #2)?
Answer: Its value is “.17”.

Question: What about the “Absorb. at 408 nm for 180 min.” value ([1]; .04 ng/mL, Test #2) of the same molecule?
Answer: Its value is “.29”.

Question: What about the nmol/min per mg ([1]; .04 ng/mL, Test #2) of the same molecule?
Answer: The nmol/min per mg was “.39 nmol/min per mg”.

Question: And the “% Activity” value ([1]; .1 ng/mL, Test #2)?
Answer: The value was 90%.

Question: And the “% Inhibition” value ([1]; .1 ng/mL, Test #2)?
Answer: The value was 10%.

Question: And the “Absorb. at 408 nm for 65 min.” value ([1]; .1 ng/mL, Test #2)?
Answer: The value was “.14”.

Question: And the “Absorb. at 408 nm for 180 min.” value ([1]; .1 ng/mL, Test #2)?
Answer: Its value is “.28”.

Question: And the nmol/min per mg ([1]; .1 ng/mL, Test #2)?
Answer: Its nmol/min per mg is “.37 nmol/min per mg”.

Question: What about the “% Activity” value ([1]; .3 ng/mL, Test #2) of the same molecule?
Answer: Its value is 84%.

Question: What about the “% Inhibition” value ([1]; .3 ng/mL, Test #2) of the same molecule?
Answer: The value was 16%.

Question: And the “Absorb. at 408 nm for 65 min.” value ([1]; .3 ng/mL, Test #2)?
Answer: The value was “.21”.

Question: And the “Absorb. at 408 nm for 180 min.” value ([1]; .3 ng/mL, Test #2)?
Answer: Its value is “.26”.

Question: What about the nmol/min per mg ([1]; .3 ng/mL, Test #2) of the same molecule?
Answer: Its nmol/min per mg is “.34 nmol/min per mg”.

Question: What about the “Absorb. at 405 nm for 100 min.” value ([1]; DNIO 4 μg in 4 mL, Test #1, 1.0 mL saliva, pH 7.8) of the same molecule?
Answer: Its value is “.03”.

Question: What about the “effective concentration for 50% inhibition EC50” value ([1]; acetylcholinesterase, human saliva) of the same molecule?
Answer: The value was 3 ng/mL.

Question: What about the “inhibition of acetylcholinesterase (in words)” value ([1]; human saliva) of the same molecule?
Answer: The value was “inhibited”.

Question: And the “concentration that produced 50% inhibition in AChE” value ([1]; saliva incubated with inhibitor about 15 minutes before substrate)?
Answer: Its value is 3 ng per mL.

Question: And the “concentration producing 50% inhibition of esterase activity” value [2]?
Answer: The value was 3 ng/mL.
